pIC50: −log10 of the molar value.
How the values were obtained:
[1] = target: T1, Human plasma kallikrein (Homo sapiens, UniProt P03952); experiment: Plasma Kallikrein Assay; assay type: biochemical; details: purified Human plasma kallikrein 0.5 nM, substrate Acetyl-K-P-R-AFC, HEPES pH 7.4; read-out: PKal IC50
T1 construct: yields a heavy chain (371 amino acids) and a light chain (248 amino acids); The active site of plasma kallikrein is contained in the light chain; purchased Enzyme Research Laboratories
T1 sequence (P03952 391-638 limits assumed): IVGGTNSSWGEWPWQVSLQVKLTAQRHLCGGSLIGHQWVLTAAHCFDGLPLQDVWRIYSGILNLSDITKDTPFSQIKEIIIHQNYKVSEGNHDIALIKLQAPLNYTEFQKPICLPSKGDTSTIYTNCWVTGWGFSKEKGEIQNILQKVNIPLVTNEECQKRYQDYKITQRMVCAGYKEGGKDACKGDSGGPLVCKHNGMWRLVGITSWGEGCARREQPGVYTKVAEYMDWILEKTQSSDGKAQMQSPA
T1 sequence (P03952 20-390 partner limits assumed): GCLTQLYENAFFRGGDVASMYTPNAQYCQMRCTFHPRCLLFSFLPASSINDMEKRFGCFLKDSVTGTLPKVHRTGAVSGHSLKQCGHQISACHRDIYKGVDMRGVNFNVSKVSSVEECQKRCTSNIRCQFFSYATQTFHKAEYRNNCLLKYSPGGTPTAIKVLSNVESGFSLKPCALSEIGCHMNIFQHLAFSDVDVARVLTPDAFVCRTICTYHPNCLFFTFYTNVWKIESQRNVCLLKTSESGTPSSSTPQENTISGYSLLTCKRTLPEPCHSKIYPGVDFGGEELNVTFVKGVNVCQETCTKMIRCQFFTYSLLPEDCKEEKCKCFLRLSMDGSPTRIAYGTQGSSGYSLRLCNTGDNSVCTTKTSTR
Procedure: (§1) The effectiveness of a compound of the present invention as an inhibitor of plasma kallikrein can be determined using a relevant purified serine protease, and an appropriate synthetic substrate. The rate of hydrolysis of the chromogenic or fluorogenic substrate by the relevant serine protease was measured both in the absence and presence of compounds of the present invention. Assays were conducted at rt or at 37° C. […] A decrease in the rate of fluorescence change in the presence of inhibitor is indicative of enzyme inhibition. Such methods are known to one skilled in the art. The results of this assay are expressed as the half-maximal inhibitory concentrations (IC50), or the inhibitory constant, Ki.
Plasma kallikrein determinations were made in 50 mM HEPES buffer at pH 7.4 containing 150 mM NaCl, 5 mM CaCl2), and 0.1% PEG 8000 (polyethylene glycol; Fisher Scientific). Determinations were made using purified Human plasma kallikrein at a final concentration of 0.5 nM (Enzyme Research Laboratories) and the synthetic substrate, Acetyl-K—P—R-AFC (Sigma #C6608) at a concentration of […].
Times required to achieve equilibration between enzyme and inhibitor were determined in control experiments. […] IC50 was determined by inflection point from a four parameter logistic curve fit. Ki was calculated using the Cheng Prusoff equation, Ki=IC50/[…](1+([S]/Km)).

[2] = target: human factor XIa (Homo sapiens, UniProt P03951); experiment: Factor XIa Assay; assay type: biochemical; details: human factor XIa 0.04 nM, substrate GPR-AFC, 30 min pre-incubation, 25° C., pH 7.4; read-out: FXIa IC50
human factor XIa, sequence (P03951 388-625 limits assumed): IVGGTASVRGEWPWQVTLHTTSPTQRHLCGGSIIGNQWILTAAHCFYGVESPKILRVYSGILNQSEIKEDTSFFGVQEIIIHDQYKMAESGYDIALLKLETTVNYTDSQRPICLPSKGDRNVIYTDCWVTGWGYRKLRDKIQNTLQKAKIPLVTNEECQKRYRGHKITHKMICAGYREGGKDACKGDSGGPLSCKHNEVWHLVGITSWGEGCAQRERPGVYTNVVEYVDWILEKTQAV
human factor XIa, sequence (P03951 19-387 partner limits assumed): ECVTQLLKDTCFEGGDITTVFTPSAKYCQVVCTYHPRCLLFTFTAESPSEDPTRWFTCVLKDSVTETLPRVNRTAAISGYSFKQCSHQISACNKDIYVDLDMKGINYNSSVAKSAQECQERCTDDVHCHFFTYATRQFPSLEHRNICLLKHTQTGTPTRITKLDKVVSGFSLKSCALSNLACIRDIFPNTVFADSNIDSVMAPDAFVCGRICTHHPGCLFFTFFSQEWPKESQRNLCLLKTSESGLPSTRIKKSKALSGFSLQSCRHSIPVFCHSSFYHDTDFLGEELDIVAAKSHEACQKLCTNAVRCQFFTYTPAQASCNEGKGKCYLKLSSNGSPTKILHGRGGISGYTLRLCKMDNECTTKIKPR
Procedure: as §1, with “Coagulation factor XIa” for “plasma kallikrein”
Compounds were pre-incubated for 30 min at 25° C. with human (0.04 nM) factor XIa in 50 mM HEPES buffer with 150 mM sodium chloride, 5 mM calcium chloride, 0.1% PEG 8000, pH 7.4. factor XIa enzymatic activity was determined by addition of the substrate glycine-proline-arginine-7-amido-4-trifluoromethylcoumarin (GPR-AFC) and measurement of the fluorescence at 400/505 nm after a 60 min incubation at 25° C. The % inhibition for each data point was calculated from the data and analyzed using the log (inhibitor) vs. response four parameters equation to determine the half-maximal inhibitory concentrations (IC50). The IC50 were converted to equilibrium inhibitory constants (Ki) using the Cheng-Prusoff equation.

Structure (SMILES)	pIC50 [1]	pIC50 [2]
Nc1c(C(=O)N2CCC[C@@]3(C2)OC(=O)Nc2ccc(Cl)c(F)c23)cnn1C(C(F)(F)F)C1(F)CC1 (single isomer, unassigned) [Example 115, (R)-1'-(5-Amino-1-((S or R)-2,2,2-trifluoro-1-(1-fluorocyclopropyl)ethyl)-1H-pyrazole-4-carbonyl)-6-chloro-5-fluorospiro[benzo[d][1,3]oxazine-4,3'-piperidin]-2(1H)-one]	9.22	7.38
Cc1cnccc1-n1ncc(C(=O)N2CCC[C@@]3(C2)OC(=O)Nc2ccc(Cl)c(F)c23)c1N [Example 105, (R)-1'-(5-Amino-1-(3-methylpyridin-4-y1)-1H-pyrazole-4-carbony1)-6-chloro-5-fluorospiro[benzo[d][1,3]oxazine-4,3'-piperidin]-2(1H)-one]	7.88	6.38
CC(C)OCCn1ncc(C(=O)N2CCC[C@@]3(C2)OC(=O)Nc2ccc(Cl)c(F)c23)c1N [Example 21, (R)-1'-(5-Amino-1-(2-isopropoxyethyl)-1H-pyrazole-4-carbonyl)-6-chloro-5-fluorospiro[benzo[d][1,3]oxazine-4,3'-piperidin]-2(1H)-one]	7.90	5.96
COCC(C)(n1ncc(C(=O)N2CCC[C@@]3(C2)OC(=O)Nc2ccc(Cl)c(F)c23)c1N)C(F)(F)F (single isomer, unassigned) [Example 129]	8.19	6.05
Nc1c(C(=O)N2CCC[C@@]3(C2)OC(=O)Nc2ccc(Cl)c(F)c23)cnn1C1(C(F)(F)F)CC(F)(F)C1 [Example 52, (R)-1'-(5-Amino-1-(3,3-difluoro-1-(trifluoromethyl)cyclobutyl)-1H-pyrazole-4-carbonyl)-6-chloro-5-fluorospiro[benzo[d][1,3]oxazine-4,3'-piperidin]-2(1H)-one]	8.04	6.01
Nc1c(C(=O)N2CCC[C@@]3(C2)OC(=O)Nc2ccc(Cl)c(F)c23)cnn1CC1CCOCC1 [Example 12, (R)-1'-(5-Amino-1-((tetrahydro-2H-pyran-4-yl)methyl)-1H-pyrazole-4-carbonyl)-6-chloro-5-fluorospiro[benzo[d][1,3]oxazine-4,3'-piperidin]-2(1H)-one]	8.09	6.32
COCC(C)(n1ncc(C(=O)N2CCC[C@@]3(C2)OC(=O)Nc2ccc(Cl)c(F)c23)c1N)C(F)(F)F (single isomer, unassigned) [Example 128, (R)-1'-(5-Amino-1-((R or S)-1,1,1-trifluoro-3-methoxy-2-methylpropan-2-y1)-1H-pyrazole-4-carbonyl)-6-chloro-5-fluorospiro[benzo[d][1,3]oxazine-4,3'-piperidin]-2(1H)-one]	8.33	6.01
Nc1c(C(=O)N2CCC[C@@]3(C2)OC(=O)Nc2ccc(Cl)c(F)c23)cnn1CC(F)(F)F [Example 1, (R)-1′-(5-Amino-1-(2,2,2-trifluoroethyl)-1H-pyrazole-4-carbonyl)-6-chloro-5-fluorospiro[benzo[d][1,3]oxazine-4,3′-piperidin]-2(1H)-one]	7.95	6.39
COc1ccccc1Cn1ncc(C(=O)N2CCC[C@@]3(C2)OC(=O)Nc2ccc(Cl)c(F)c23)c1N [Example 40, (R)-1'-(5-Amino-1-(2-methoxybenzyl)-1H-pyrazole-4-carbonyl)-6-chloro-5-fluorospiro[benzo[d][1,3]oxazine-4,3'-piperidin]-2(1H)-one]	8.64	6.60
Nc1c(C(=O)N2CCC[C@@]3(C2)OC(=O)Nc2ccc(Cl)c(F)c23)nnn1Cc1ccccc1 [Example 133, (R)-1′-(5-Amino-1-benzyl-1H-1,2,3-triazole-4-carbonyl)-6-chloro-5-fluorospiro[benzo[d][1,3]oxazine-4,3′-piperidin]-2(1H)-one]	6.72	6.48
Nc1c(C(=O)N2CCC[C@@]3(C2)OC(=O)Nc2ccc(Cl)c(F)c23)cnn1CCOCC(F)(F)F [Example 20, (R)-1'-(5-Amino-1-(2-(2,2,2-trifluoroethoxy)ethyl)-1H-pyrazole-4-carbonyl)-6-chloro-5-fluorospiro[benzo[d][1,3]oxazine-4,3'-piperidin]-2(1H)-one]	8.23	6.05
Nc1c(C(=O)N2CCC[C@@]3(C2)OC(=O)Nc2ccc(Cl)c(F)c23)cnn1-c1ccnc2ccccc12 [Example 103, (R)-1'-(5-Amino-1-(quinolin-4-yl)-1H-pyrazole-4-carbonyl)-6-chloro-5-fluorospiro[benzo[d][1,3]oxazine-4,3'-piperidin]-2(1H)-one]	8.00	6.21
CC(C)Cn1ncc(C(=O)N2CCC[C@@]3(C2)OC(=O)Nc2ccc(Cl)c(F)c23)c1N [Example 17, (R)-1'-(5-Amino-1-isobutyl-1H-pyrazole-4-carbonyl)-6-chloro-5-fluorospiro[benzo[d][1,3]oxazine-4,3'-piperidin]-2(1H)-one]	8.10	6.48
Nc1c(C(=O)N2CCC[C@@]3(C2)OC(=O)Nc2ccc(Cl)c(F)c23)cnn1CC(F)F [Example 15, (R)-1'-(5-Amino-1-(2,2-difluoroethyl)-1H-pyrazole-4-carbonyl)-6-chloro-5-fluorospiro[benzo[d][1,3]oxazine-4,3'-piperidin]-2(1H)-one]	7.77	6.05
Cn1c(-c2ccccc2)nnc1-n1ncc(C(=O)N2CCC[C@@]3(C2)OC(=O)Nc2ccc(Cl)c(F)c23)c1N [Example 30, (R)-1'-(5-Amino-1-(4-methyl-5-phenyl-4H-1,2,4-triazol-3-y1)-1H-pyrazole-4-carbonyl)-6-chloro-5-fluorospiro[benzo[d][1,3]oxazine-4,3'-piperidin]-2(1H)-one]	7.74	5.55
Nc1c(C(=O)N2CCC[C@@]3(C2)OC(=O)Nc2ccc(Cl)c(F)c23)cnn1-c1ccccc1Oc1ccccc1 [Example 96, (R)-1'-(5-Amino-1-(2-phenoxyphenyl)-1H-pyrazole-4-carbonyl)-6-chloro-5-fluorospiro[benzo[d][1,3]oxazine-4,3'-piperidin]-2(1H)-one]	8.96	5.86
Nc1c(C(=O)N2CCC[C@@]3(C2)OC(=O)Nc2ccc(Cl)c(F)c23)cnn1Cc1cccnc1 [Example 55, (R)-1'-(5-Amino-1-(pyridin-3-ylmethyl)-1H-pyrazole-4-carbonyl)-6-chloro-5-fluorospiro[benzo[d][1,3]oxazine-4,3'-piperidin]-2(1H)-one]	8.70	6.38
Nc1c(C(=O)N2CCC[C@@]3(C2)OC(=O)Nc2ccc(Cl)c(F)c23)cnn1-c1ccccc1OC(F)F [Example 90, (R)-1'-(5-Amino-1-(2-(difluoromethoxy)phenyl)-1H-pyrazole-4-carbonyl)-6-chloro-5-fluorospiro[benzo[d][1,3]oxazine-4,3'-piperidin]-2(1H)-one]	8.18	6.67
Nc1c(C(=O)N2CCC[C@@]3(C2)OC(=O)Nc2ccc(Cl)c(F)c23)cnn1C12CC(C1)C2 [Example 19, (R)-1'-(5-Amino-1-(bicyclo[1.1.1]pentan-1-y1)-1H-pyrazole-4-carbonyl)-6-chloro-5-fluorospiro[benzo[d][1,3]oxazine-4,3'-piperidin]-2(1H)-one]	7.54	5.53
Nc1c(C(=O)N2CCC[C@@]3(C2)OC(=O)Nc2ccc(Cl)c(F)c23)cnn1Cc1ccc(C(F)(F)F)nc1 [Example 43, (R)-1'-(5-Amino-1-((6-(trifluoromethyl)pyridin-3-yl)methyl)-1H-pyrazole-4-carbonyl)-6-chloro-5-fluorospiro[benzo[d][1,3]oxazine-4,3'-piperidin]-2(1H)-one]	8.10	6.04
Cc1ccc(F)cc1-n1ncc(C(=O)N2CCC[C@@]3(C2)OC(=O)Nc2ccc(Cl)c(F)c23)c1N [Example 88, (R)-1'-(5-Amino-1-(5-fluoro-2-methylpheny1)-1H-pyrazole-4-carbonyl)-6-chloro-5-fluorospiro[benzo[d][1,3]oxazine-4,3'-piperidin]-2(1H)-one]	7.33	5.77

Source: patent US12679848B2, “Plasma kallikrein inhibitors” (Merck Sharp & Dohme LLC, priority 2020, dated 2026)
